Experimental findings from ChEMBL document CHEMBL5465560, “Selectivity Literature for EUbOPEN Chemogenomic Library” (2024) are described below.

Test [1] deals with MAP kinase-interacting serine/threonine-protein kinase 1 (Homo sapiens) (UniProt Q9BUB5). In words: Selectivity interaction (KinomeScan (DiscoverX)) EUB0000607a MKNK1. Particulars: at 10 µM.
Test [2] concerns the target T1, Inhibitor of nuclear factor kappa-B kinase subunit epsilon (Homo sapiens) (UniProt Q14164).
T1 sequence (whole entry): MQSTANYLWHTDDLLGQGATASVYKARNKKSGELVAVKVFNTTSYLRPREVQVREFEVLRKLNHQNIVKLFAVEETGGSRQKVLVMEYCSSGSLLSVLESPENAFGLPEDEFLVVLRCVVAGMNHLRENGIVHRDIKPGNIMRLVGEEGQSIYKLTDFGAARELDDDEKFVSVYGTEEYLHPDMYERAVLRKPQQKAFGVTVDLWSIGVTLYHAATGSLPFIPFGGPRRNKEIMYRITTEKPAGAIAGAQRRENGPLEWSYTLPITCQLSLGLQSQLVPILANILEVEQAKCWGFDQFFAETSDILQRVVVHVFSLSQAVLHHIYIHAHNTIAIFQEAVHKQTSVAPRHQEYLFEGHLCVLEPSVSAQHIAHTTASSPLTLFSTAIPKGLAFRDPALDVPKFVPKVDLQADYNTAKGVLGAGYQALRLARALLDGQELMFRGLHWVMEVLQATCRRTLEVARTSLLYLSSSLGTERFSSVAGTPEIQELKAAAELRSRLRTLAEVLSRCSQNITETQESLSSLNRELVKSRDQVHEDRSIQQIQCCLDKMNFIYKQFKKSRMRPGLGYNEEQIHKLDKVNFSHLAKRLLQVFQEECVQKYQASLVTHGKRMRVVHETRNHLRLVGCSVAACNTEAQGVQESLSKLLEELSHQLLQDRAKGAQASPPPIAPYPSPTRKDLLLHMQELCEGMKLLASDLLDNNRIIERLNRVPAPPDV
Nature of the test: Selectivity interaction (KinomeScan (DiscoverX)) EUB0000607a IKBKE. Particulars: at 10 µM.

Test [3] concerns the target Calcium/calmodulin-dependent protein kinase kinase 2 (Homo sapiens) (UniProt Q96RR4). Nature of the test: Selectivity interaction (KinomeScan (DiscoverX)) EUB0000607a CAMKK2. The conditions noted are these: at 10 µM.
For test [4], the target named is Casein kinase I isoform delta (Homo sapiens, UniProt P48730). Nature of the test: Selectivity interaction (Kinase panel (DSF assay)) EUB0001558a CSNK1D. (In general: DSF heats the sample and reads unfolding from a dye or from intrinsic fluorescence.)
Sequence of Casein kinase I isoform delta (P48730 whole entry, looked up, canonical isoform): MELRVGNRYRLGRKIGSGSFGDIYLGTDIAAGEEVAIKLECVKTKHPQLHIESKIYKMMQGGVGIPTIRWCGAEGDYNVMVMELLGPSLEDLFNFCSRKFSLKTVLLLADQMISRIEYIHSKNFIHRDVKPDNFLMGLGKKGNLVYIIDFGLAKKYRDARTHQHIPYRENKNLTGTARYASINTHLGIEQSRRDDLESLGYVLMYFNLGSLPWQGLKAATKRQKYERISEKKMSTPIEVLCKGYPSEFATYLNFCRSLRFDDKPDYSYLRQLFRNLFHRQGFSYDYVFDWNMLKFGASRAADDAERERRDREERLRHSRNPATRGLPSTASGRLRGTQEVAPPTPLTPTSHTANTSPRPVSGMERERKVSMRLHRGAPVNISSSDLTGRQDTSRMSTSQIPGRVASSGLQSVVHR
The target in test [5] is Mitogen-activated protein kinase 14 (Homo sapiens, UniProt Q16539). Nature of the test: Selectivity interaction (Kinase panel (DSF assay)) EUB0001558a MAPK14.
Sequence of Mitogen-activated protein kinase 14 (Q16539 whole entry): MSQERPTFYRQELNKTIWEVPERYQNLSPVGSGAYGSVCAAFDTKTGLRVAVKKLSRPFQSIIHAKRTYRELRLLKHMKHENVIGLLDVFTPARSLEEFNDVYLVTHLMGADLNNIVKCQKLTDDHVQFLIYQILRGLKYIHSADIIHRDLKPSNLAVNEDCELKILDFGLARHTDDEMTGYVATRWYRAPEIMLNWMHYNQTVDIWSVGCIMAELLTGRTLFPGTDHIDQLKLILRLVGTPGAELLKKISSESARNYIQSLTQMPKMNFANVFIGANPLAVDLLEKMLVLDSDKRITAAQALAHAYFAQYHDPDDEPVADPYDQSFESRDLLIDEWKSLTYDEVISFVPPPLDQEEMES
In test [6] the target is Fibroblast growth factor receptor 3 (Homo sapiens, UniProt P22607). In words: (§1) Selectivity interaction (KinomeScan (DiscoverX)) EUB0001619a FGFR3. Particulars: at 1 µM.
Sequence of Fibroblast growth factor receptor 3 (P22607 23-806 limits assumed): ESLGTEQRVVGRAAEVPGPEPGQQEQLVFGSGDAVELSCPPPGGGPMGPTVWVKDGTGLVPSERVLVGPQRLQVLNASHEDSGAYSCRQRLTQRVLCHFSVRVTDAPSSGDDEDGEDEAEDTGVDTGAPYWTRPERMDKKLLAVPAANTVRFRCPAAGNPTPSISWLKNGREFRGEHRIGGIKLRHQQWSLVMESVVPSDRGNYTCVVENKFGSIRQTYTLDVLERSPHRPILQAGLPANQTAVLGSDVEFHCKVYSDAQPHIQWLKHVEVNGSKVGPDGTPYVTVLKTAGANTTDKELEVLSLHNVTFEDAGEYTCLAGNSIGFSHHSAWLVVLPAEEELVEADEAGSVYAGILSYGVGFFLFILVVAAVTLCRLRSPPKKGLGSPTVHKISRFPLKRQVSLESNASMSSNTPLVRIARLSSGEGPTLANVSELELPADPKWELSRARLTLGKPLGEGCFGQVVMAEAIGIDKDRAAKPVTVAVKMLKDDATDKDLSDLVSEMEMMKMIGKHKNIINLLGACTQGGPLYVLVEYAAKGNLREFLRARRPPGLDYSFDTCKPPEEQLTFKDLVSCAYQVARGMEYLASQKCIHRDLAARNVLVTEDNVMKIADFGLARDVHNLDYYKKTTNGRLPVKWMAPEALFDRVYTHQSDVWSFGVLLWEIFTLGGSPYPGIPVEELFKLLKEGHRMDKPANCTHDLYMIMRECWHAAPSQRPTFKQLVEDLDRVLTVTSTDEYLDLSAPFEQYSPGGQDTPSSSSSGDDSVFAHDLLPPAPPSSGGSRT
Test [7] relates to Fibroblast growth factor receptor 3 (Homo sapiens), P22607 [G697C]. Described as §1. Particulars: at 1 µM.
Sequence of Fibroblast growth factor receptor 3 (Homo sapiens), P22607 [G697C] (P22607 whole entry G697C): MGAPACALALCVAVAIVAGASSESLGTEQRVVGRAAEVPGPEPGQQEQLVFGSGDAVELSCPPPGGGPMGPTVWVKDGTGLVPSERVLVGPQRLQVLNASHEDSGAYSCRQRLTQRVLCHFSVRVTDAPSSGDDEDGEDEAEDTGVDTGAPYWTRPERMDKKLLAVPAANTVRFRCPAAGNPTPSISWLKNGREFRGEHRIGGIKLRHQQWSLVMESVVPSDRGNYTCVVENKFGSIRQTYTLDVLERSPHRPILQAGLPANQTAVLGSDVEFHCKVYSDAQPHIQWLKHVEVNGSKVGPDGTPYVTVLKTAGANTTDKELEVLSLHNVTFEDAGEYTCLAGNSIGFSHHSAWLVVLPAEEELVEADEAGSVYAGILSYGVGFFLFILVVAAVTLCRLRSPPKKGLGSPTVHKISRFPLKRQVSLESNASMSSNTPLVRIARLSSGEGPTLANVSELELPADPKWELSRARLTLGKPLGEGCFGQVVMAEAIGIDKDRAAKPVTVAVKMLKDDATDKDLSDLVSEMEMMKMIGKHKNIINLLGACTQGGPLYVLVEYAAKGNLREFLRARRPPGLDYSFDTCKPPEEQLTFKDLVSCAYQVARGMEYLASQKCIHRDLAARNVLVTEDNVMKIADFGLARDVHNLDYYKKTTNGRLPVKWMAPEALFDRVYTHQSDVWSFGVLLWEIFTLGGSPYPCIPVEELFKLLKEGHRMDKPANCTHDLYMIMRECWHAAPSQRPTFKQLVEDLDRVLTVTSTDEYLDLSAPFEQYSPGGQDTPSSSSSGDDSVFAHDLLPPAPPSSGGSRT
Test [8] concerns the target Tyrosine-protein kinase CSK (Homo sapiens) (UniProt P41240). In words: Selectivity interaction (KinomeScan (DiscoverX)) EUB0001619a CSK. The conditions noted are these: at 1 µM.
The target in test [9] is T2, Serine/threonine-protein kinase Nek5 (Homo sapiens) (UniProt Q6P3R8).
T2 sequence (whole entry): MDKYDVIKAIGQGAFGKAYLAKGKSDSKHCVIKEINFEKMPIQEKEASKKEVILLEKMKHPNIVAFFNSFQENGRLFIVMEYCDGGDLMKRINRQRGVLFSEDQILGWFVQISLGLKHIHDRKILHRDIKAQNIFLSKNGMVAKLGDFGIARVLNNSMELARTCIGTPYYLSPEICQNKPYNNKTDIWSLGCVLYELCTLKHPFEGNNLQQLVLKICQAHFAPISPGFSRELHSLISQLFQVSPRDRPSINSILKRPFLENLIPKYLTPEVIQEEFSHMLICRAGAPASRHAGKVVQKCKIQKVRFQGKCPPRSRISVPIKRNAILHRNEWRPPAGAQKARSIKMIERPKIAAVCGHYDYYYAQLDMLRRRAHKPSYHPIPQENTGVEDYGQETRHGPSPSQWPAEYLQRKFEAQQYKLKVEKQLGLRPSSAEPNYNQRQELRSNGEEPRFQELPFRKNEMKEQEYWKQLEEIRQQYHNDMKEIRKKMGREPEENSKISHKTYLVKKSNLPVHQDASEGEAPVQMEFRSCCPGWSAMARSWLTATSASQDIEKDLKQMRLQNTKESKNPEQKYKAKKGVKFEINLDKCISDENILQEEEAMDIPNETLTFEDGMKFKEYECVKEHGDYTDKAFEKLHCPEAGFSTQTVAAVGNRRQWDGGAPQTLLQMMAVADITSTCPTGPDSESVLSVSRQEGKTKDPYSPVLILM
In words: Selectivity interaction (KinomeScan (DiscoverX)) EUB0000045b NEK5.

The target of test [10] is T3, Ephrin type-A receptor 1 (Homo sapiens) (UniProt P21709).
T3 sequence (whole entry): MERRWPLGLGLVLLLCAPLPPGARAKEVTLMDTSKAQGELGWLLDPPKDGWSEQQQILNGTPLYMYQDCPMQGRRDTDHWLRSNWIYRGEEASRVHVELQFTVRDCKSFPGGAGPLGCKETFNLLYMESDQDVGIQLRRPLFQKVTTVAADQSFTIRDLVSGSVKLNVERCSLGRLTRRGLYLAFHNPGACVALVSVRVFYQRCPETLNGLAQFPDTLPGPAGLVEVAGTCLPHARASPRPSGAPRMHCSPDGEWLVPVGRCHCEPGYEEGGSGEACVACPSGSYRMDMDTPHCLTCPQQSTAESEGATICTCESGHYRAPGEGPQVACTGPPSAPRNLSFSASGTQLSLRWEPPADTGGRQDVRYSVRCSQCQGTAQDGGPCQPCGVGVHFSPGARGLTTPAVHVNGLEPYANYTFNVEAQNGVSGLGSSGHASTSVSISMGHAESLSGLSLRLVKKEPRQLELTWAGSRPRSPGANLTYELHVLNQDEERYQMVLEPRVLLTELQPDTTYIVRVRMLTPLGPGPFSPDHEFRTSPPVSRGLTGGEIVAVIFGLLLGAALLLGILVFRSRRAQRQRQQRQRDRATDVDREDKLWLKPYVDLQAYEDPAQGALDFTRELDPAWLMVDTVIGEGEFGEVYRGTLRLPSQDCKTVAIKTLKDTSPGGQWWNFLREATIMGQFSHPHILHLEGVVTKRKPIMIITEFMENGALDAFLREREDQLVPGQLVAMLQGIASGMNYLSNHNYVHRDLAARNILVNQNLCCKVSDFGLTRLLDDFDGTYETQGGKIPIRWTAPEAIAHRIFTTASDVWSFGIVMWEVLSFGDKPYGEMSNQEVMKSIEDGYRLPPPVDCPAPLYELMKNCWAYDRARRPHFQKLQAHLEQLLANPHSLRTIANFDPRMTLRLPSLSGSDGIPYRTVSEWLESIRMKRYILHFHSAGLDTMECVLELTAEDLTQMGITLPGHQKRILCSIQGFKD
Nature of the test: Selectivity interaction (Upstate Kinase Profiler service (Millipore)) EUB0000056c EPHA1. Particulars: at 1 µM.

The target in test [11] is Cyclin-dependent kinase 2 (Homo sapiens, UniProt P24941). Nature of the test: Selectivity interaction (Kinase panel (enzymatic assay)) EUB0000595a CDK2.

Sequence of MAP kinase-interacting serine/threonine-protein kinase 1 (Homo sapiens) (Q9BUB5 whole entry, looked up): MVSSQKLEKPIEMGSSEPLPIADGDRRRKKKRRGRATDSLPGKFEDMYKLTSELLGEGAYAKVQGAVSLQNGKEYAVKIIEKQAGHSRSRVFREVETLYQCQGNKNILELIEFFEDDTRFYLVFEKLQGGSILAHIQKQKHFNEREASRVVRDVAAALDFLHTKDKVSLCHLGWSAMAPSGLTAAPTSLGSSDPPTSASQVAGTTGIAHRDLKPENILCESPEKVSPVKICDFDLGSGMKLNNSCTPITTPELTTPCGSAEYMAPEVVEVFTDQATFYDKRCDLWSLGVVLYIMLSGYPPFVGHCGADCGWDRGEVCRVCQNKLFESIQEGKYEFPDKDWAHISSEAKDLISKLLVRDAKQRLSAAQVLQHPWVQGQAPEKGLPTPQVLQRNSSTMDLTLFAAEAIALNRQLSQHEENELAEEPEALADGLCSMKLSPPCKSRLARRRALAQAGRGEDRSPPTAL
Sequence of Tyrosine-protein kinase CSK (Homo sapiens) (P41240 2-450 limits assumed): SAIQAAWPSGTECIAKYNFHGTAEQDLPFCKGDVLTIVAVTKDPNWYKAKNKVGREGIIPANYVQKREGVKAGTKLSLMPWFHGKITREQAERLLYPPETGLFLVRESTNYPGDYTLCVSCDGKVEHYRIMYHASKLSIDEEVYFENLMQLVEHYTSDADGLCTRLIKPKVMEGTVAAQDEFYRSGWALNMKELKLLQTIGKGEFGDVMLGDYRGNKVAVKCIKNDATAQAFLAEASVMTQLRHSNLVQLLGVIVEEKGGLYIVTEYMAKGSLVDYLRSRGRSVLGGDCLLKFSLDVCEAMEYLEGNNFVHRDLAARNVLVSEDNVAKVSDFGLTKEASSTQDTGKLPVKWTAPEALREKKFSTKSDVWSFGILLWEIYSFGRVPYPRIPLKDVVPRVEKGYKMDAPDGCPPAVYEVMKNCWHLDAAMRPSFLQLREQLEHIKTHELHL
Sequence of Calcium/calmodulin-dependent protein kinase kinase 2 (Homo sapiens) (Q96RR4 2-588 limits assumed): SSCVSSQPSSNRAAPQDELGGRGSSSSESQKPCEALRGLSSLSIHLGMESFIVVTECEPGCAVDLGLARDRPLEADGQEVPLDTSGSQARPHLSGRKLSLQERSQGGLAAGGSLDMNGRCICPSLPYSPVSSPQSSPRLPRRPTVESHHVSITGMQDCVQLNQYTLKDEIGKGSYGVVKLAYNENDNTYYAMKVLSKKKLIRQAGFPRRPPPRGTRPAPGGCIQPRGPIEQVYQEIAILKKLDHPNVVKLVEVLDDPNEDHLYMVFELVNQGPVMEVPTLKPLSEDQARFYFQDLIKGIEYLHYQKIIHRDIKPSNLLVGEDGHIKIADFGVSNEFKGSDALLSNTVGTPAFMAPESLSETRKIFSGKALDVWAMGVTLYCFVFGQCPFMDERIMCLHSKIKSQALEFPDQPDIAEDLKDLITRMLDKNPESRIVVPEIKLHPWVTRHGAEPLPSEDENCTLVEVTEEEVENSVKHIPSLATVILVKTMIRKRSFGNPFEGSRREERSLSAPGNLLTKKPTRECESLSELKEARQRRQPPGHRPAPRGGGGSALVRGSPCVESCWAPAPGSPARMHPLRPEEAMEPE

As to `CNC(=O)Nc1ccc(-c2nc(N3CC4CCC(C3)O4)c3cnn(C4CCC5(CC4)OCCO5)c3n2)cc1`, the % of control in [1], in test [2] and in [3] was 100% in each case.
In the case of `CC(C)(O)[C@H](F)CN1Cc2cc(NC(=O)c3cnn4cccnc34)c(N3CCOCC3)cc2C1=O`, the dTM in test [4] came to 1.9 K; in test [5] it was 0.3 K.
Turning to `N#Cc1cccc(-c2c[nH]c3ncnc(N4CCOCC4)c23)c1`, the % of control in test [6] stood at 100%; in [7], 100%; in test [8], 96%.
Take `C=CC(=O)Nc1cc(-n2c(=O)ccc3cnc4ccc(-c5ccc(NS(C)(=O)=O)cc5)cc4c32)ccc1C`: the % of control in test [9] (at 1 µM) worked out at 100%; in test [9] (at 10 µM) it was 84%.
Regarding `Cc1ccc(-c2ccc3c(ccc4sc5c(c43)NC[C@@H](C)NC5=O)n2)cn1`, the % of inhibition in [10] was -6%.
A word on the IC50: it is the concentration that inhibits the measured activity by half. The low end stands for higher potency, the high end for lower potency. With `COCC(=O)NC/C=C/c1ccc2ncnc(Nc3ccc(Oc4ccc(C)nc4)c(C)c3)c2c1` [CP-724714], the IC50 in test [11] was greater than 10 µM.
